Source: the NIST ThermoML archive (doi:10.1021/je500512f)

Test: molar heat capacity at constant pressure
Details: Liquid, Twin Calvet

COC [dimethyl ether]
molar heat capacity at constant pressure [J/K/mol]
Details	1460 kPa	2030 kPa	2520 kPa	2930 kPa	3540 kPa	4060 kPa	4580 kPa	5020 kPa
305.15 K	113.19	112.82	112.13	112.36	111.99	111.53	111.26	111.02
310.15 K	113.47	112.91	112.31	112.45	111.72	111.21	111.44	111.3
315.15 K	114.8	114.11	113.6	113.47	112.78	112.13	112.45	112.22
320.15 K	116.23	115.45	115.03	114.89	114.02	113.37	113.56	113.28
325.15 K	117.84	116.92	116.65	116.05	115.31	114.57	114.66	114.3
330.15 K	–	118.86	118.49	117.75	117.01	116.05	116.05	115.59
335.15 K	–	121.34	120.84	120.15	119.27	118.03	117.98	117.38
340.15 K	–	–	123.92	123.09	122.08	120.65	120.52	119.82
345.15 K	–	–	127.75	126.55	125.35	123.92	123.65	122.86
350.15 K	–	–	–	130.65	129.13	127.75	127.19	126.27
355.15 K	–	–	–	–	133.46	131.94	131.06	129.91
360.15 K	–	–	–	–	–	136.82	135.67	134.15
365.15 K	–	–	–	–	–	144.01	142.31	140.42
